Here are results for 9 compounds from patent US6706764B2, “Use of creatine or creatine analogs for the treatment of diseases of the nervous system” (Avicena Group, Inc., priority 1994, dated 2004).

For series [1] the following is noted: compared with phosphocreatine; cited from earlier work.
In series [2] the test system is malonate striatal excitotoxic lesions. The note with it: cited from earlier work; for protection against lesions in the malonate animal model: intrastriatal malonate; for ATP depletion produced by malonate in vivo: rat.
In a further series the test system is MPTP toxicity. Description: MPTP toxicity in mice, earlier work of the inventors. It counts as in vivo. The source says:
This metabolite is formed by the activity of monoamine oxidase on MPTP. Inhibitors of monoamine oxidase block the neurotoxicity of MPTP in both mice and primates. The specificity of the neurotoxic effects of MPP^+ for dopaminergic neurons appears to be due to the uptake of MPP^+ by the synaptic dopamine transporter. Blockers of this transporter prevent MPP^+ neurotoxicity. […] It binds to complex I at the retenone binding site. […] In vivo studies have shown that MPTP can deplete striatal ATP concentrations in mice.

Series [3] concerns creatine kinase. The note with it: forward reaction, both in vitro and in vivo; cited from earlier work.
For series [4] the following is noted: mice, up to 1% of diet for 2 weeks or for over 4 weeks; cited from earlier work.
Series [5] relates to malonate induced striatal lesions. Description: Malonate induced striatal lesions, model for Huntington's disease. It counts as in vivo, rats. As for the experimental part: We initially examined whether oral administration of creatine or its analogue cyclocreatine could attenuate malonate lesions. Creatine was administered orally to rats in their feed at doses of 0.25-3.0% of the diet. Cyclocreatine was administered at 0.2-1.0%. Controls received unsupplemented otherwise identical diets. The compounds were administered for two weeks prior to the administration of malonate and then for a further week prior to sacrifice. Malonate was dissolved in distilled deionized water and the pH wad adjusted to 7.4 with 0.1 m HCI. Intrastriatal injections of 1.5 ul of malonate containing 3 μmol were made into the striatum at the level of the Bregma 2.4 mm lateral to the midline and 4.5 mm ventral to the dura. Animals were sacrificed at 7 days by decapitation, and the brains were quickly removed and placed in ice cold 0.9% saline solution. Brains were sectioned at 2 mm intervals. Slices were then placed posterior side down in 2% 2,3,5-triphenyltetrazolium chloride. Slices were stained in the dark at room temperature for 30 minutes and then removed and placed in 4% paraformaldehyde, pH 7.3. Lesions, noted by pale staining, were evaluated on the posterior surface of each section using a Bioquant 4 system by an experienced histologist blinded to experimental conditions. These measurements have been validated by comparing them to measurements obtained on adjacent Nissl stain sections.

Series [6] concerns MPTP induced dopaminiergic toxicity. Description: MPTP model for Parkinson's disease, striatal dopamine, DOPAC and HVA by HPLC. The note with it: for neuroprotection against dopamine depletions: dose response. It counts as in vivo, male Swiss Webster mice. As for the experimental part: The effect of two representative creatine compounds, creatine and cyclocreatine, were evaluated using this model. Creatine and cyclocreatine were administered in the initial pilot experiment as 1% formulation in the feed of animals, and was administered for three weeks before MPTP treatment. MPTP was administered intraperitoneally at a dose of 15 mg/kg every 2 hours for five injections. The animals then remained on either creatine or cyclocreaine supplemented diets for 1 week before sacrifice. The mice examined were male Swiss Webster mice weighing 30-35 grams obtained from Taconic Farms. Control groups recieved either normal saline or MPTP hydrochloride alone. MPTP was administered in 0.1 ml of water. The MPTP was obtained from Research Biochemicals. Eight to twelve animals were examined in each group. Following sacrifice the two striata were rapidly dissected and placed in chilled 0.1 M perchloric acid. Tissue was subsequently sonicated, and aliquots were taken for protein quantification using a fluorometer assay. Dopamine, 3,4-dihydroxyphenylacetic acid (DOPAC), and homovanillic acid (HVA) were quantified by HPLC with 16 electrode electrochemical detection. Concentrations of dopamine and metabolites were expressed as nmol/mg protein. The statistical significance of differences was determined by one-way ANOVA followed by Fisher PLSDpost-hoc test to compare group means.
A dose response study was conducted where the creatine dose was 0.25%-3.0% of the diet and cyclocreatine 0.25-1.0% of the diet.

For series [7] the following is noted: fed to mice, rats and chicks; cited from earlier work.
The conditions of series [8]: cited from earlier work.
A further series relates to viral infections. Conditions: 1% dietary; cited from earlier work.
For series [9] the following is noted: cited from earlier work. This is another data set of the same source.
Series [10] relates to creatine kinase. Conditions: cited from earlier work.
For series [11] the following is noted: intravenous injection, up to 8 grams/day, patients with cardiac diseases; cited from earlier work.
Setting [12] is: pilot, 1% in feed, oral, FIG. 4.

For “3-phosphoryl-1-carboxymethyl-2-iminoimidazolidine [cyclocreatine phosphate]”, in series [1], the “stability of the P-N bond” value is reported as “more stable than that of phosphocreatine”.

As for `COC1=C(OC)C(=O)C(C/C=C(\C)CC/C=C(\C)CC/C=C(\C)CC/C=C(\C)CC/C=C(\C)CC/C=C(\C)CC/C=C(\C)CC/C=C(\C)CC/C=C(\C)CCC=C(C)C)=C(C)C1=O` [Q10, coenzyme Q10], in [2], the “protection against lesions in the malonate animal model” value (from here on “protection against lesions”) is on record as “dose dependent protection” and the “ATP depletion produced by malonate in vivo” value is reported as “attenuated”. Also, the “protection against MPTP toxicity” value in the series on MPTP toxicity is recorded as “significantly protect”.

For the compound `NC1=NCCN1CC(=O)O` [cyclocreatine, 1-carboxymethyl-2-iminoimidazolidine], the “phosphorylation by creatine kinase” value with creatine kinase [3] is listed as “phosphorylated efficiently”. Further, the gross adverse effects entry in [4] was “without gross adverse effects”. Also, the “neuroprotection against malonate induced striatal lesions” value in series [5] (dose of 1% in the diet, FIG. 2) is “significant”. Also, in series [5] (increasing doses in the diet: creatine 0.25-3%, cyclocreatine 0.2-1.0%, FIG. 2), the “neuroprotection against malonate induced striatal lesions, dose response” value is “dose dependent neuroprotective effects”. Besides, in series [5] (initial pilot experiment, oral supplementation in feed, FIG. 1), the “protection against striatal malonate lesions (lesion volume)” value is on record as “protected against striatal malonate lesions”. Besides, in series [6] (0.5% of the diet, FIG. 5), the “protection against HVA depletion” value is recorded as “not seen” and the “neuroprotection against dopamine depletions” value is reported as “significant protection”. In series [6] (dose response study, FIG. 5), the “effect on 3-4-dihydroxyphenyl acetic acid (DOPAC)” value is “neuroprotection effects” and the “effect on homovanillic acid (HVA)” value is recorded as “neuroprotection effects”. For the same compound, in series [6] (1.0% of the diet, FIG. 5), the “neuroprotection against dopamine depletions” value is given as “significant protection”. In [6] (setting [12]), the “effect against MPTP induced depletions of homovanillic acid” value is “effective”, the “neuroprotection against MPTP induced dopamine depletions” value was “significant neuroprotection”, the “neuroprotective effect compared with creatine” value was “greater than that seen with creatine alone” and the “protection against DOPAC depletions induced by MPTP” value is “significantly protected”. Besides, the tolerability entry in [7] is “well-tolerated”. Further, the “accumulation in different organs” value in [8] (feeding animals e.g. 1% dietary) is recorded as “mM concentrations”. In addition, the tissue uptake entry in series [8] (rats receiving dietary 1%) was “taken up by muscle, heart and brain”. The antiviral activity entry in the series with viral infections is listed as “observed”. For the same compound, the growth result in series [9] (in vivo) was “grew more slowly than control chicks”. Further, in [9] (newly hatched chicks, diet containing 1%, in the presence of antibiotics), the mortality result was “without significant mortality”.

Take `N=C(N)N(CC(=O)O)CC1CO1` (stereo not shown) [epoxycreatine]: the “inactivation of creatine kinase” value in the series with creatine kinase [10] was “completely and irreversibly inactivate”.

On to `Nc1nnc(-c2cccc(Cl)c2Cl)c(N)n1` [lamotrigine], for which the “protection against lesions” value in series [2] was “attenuates the lesions”.

Regarding `NC(=O)c1cccnc1` [nicotinimide], in series [2], the “protection against lesions” value is “dose dependent protection” and the “ATP depletion produced by malonate in vivo” value is given as “attenuated”.

Take `O=C(O)CCC(=O)O` [succinate]: the “malonate lesions on co-injection” value in [2] (co-injection with malonate) is “blocks the lesions”.

For the compound “N-phosphoryl creatine [creatine phosphate]”, the adverse side effects entry in series [11] is “no adverse side effects”.

As for isoepoxycreatine, the “inactivation of creatine kinase” value in the series with creatine kinase [10] is “completely and irreversibly inactivate”.
